Assay results as given in ChEMBL document CHEMBL1155865, “Discovery of triazolinone non-nucleoside inhibitors of HIV reverse transcriptase” (Bioorg Med Chem Lett, 2008).
Values after ≈ are worked out from the molar mass of the structure shown. Active and inactive are the calls of the source. No cut-off for these calls is given here.

Key:
[1] = target: T1, Human immunodeficiency virus type 1 reverse transcriptase (Human immunodeficiency virus 1, UniProt Q72547); assay: Inhibition of wild type HIV1 reverse transcriptase polymerase activity by scintillation counting assay
[2] = target: Human immunodeficiency virus type 1 reverse transcriptase (Human immunodeficiency virus 1) (UniProt Q72547); assay: (§1) Binding affinity to wild type HIV1 reverse transcriptase by SPR assay
[3] = system: Human immunodeficiency virus 1; assay: Antiviral activity against HIV1 with reverse transcriptase K103N/Y181C mutant in MT4 cells assessed as inhibition of virus-induced cytopathic effect; format: functional, organism-based; settings: Human immunodeficiency virus 1, MT4
Cytochrome P450 3A4 = Cytochrome P450 3A4 (Homo sapiens, UniProt P08684); assay: Inhibition of CYP3A4; format: ADME
[4] = system: Human immunodeficiency virus 1; assay: Antiviral activity against HIV1 with wild type reverse transcriptase in MT4 cells assessed as inhibition of virus-induced cytopathic effect; format: functional, organism-based; settings: Human immunodeficiency virus 1, MT4
[5] = target: T1, Human immunodeficiency virus type 1 reverse transcriptase; assay: as §1
[6] = system: Human immunodeficiency virus 1; assay: Antiviral activity against HIV1 with reverse transcriptase K103N/L100I mutant in MT4 cells assessed as inhibition of virus-induced cytopathic effect; format: functional, organism-based; settings: Human immunodeficiency virus 1, MT4
Liver microsomes = assay: Clearance in rat liver microsome per mg of protein; format: ADME
[7] = Bioavailability in dog at 2 mg/kg, po; format: ADME, organism-based, Canis lupus familiaris; settings: in vivo
[8] = Solubility of compound at pH 6.5; format: physicochemical; settings: buffer
[9] = system: Human immunodeficiency virus 1; assay: Antiviral activity against HIV1 with reverse transcriptase Y181C mutant in MT4 cells assessed as inhibition of virus-induced cytopathic effect; format: functional, organism-based; settings: Human immunodeficiency virus 1, MT4
Caco-2 = assay: Apparent permeability across human Caco-2 cells; format: ADME, cell-based
[10] = AUC (0 to infinity) in dog at 0.5 mg/kg, iv or 2 mg/kg, po; format: ADME, organism-based, Canis lupus familiaris; settings: plasma
[11] = system: Human immunodeficiency virus 1; assay: Antiviral activity against HIV1 with reverse transcriptase […] mutant in MT4 cells assessed as inhibition of virus-induced cytopathic effect; format: functional, organism-based; settings: Human immunodeficiency virus 1, MT4
[12] = Clearance in dog at 0.5 mg/kg, iv or 2 mg/kg, po; format: ADME, organism-based, Canis lupus familiaris; settings: in vivo
[13] = Cmax in dog at 0.5 mg/kg, iv or 2 mg/kg, po; format: ADME, organism-based, Canis lupus familiaris; settings: in vivo

Sequence of Cytochrome P450 3A4 (P08684 whole entry): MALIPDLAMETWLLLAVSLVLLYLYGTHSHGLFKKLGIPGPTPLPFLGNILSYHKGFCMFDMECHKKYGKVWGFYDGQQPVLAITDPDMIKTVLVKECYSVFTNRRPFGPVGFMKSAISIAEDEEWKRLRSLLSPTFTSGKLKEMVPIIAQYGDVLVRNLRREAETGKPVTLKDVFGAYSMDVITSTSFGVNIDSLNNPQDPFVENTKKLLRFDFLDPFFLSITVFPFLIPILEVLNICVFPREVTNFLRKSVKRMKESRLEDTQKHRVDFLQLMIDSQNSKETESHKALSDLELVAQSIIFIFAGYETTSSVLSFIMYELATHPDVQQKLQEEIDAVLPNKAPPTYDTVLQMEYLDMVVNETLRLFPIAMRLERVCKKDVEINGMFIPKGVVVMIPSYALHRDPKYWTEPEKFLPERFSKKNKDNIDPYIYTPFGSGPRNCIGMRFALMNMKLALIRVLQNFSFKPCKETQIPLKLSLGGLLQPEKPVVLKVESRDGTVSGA

Row | IC50 [1] [µM] | Compound | EC50 [3] [µM] | EC50 [4] [µM] | other results
1 | 0.13 | Cc1cc(Cc2ccc(Cl)c(Oc3cccc(Br)c3)c2)n[nH]c1=O | – | – | –
2 | > 100 | Cc1n[nH]c(=O)n1C | – | – | Activity [2]: inactive
3 | – | Cc1ccc(Cc2n[nH]c(=O)n2C)c(F)c1Oc1cc(Cl)cc(C#N)c1 | 0.026 | 0.002 | IC50 (Cytochrome P450 3A4): 12 µM
4 | 0.017 | C[C@H]1CC(Cc2ccc(Cl)c(Oc3cc(Cl)cc(C#N)c3)c2F)=NNC1=O | – | 0.032 | –
5 | > 100 | Cn1c(Cc2ccc(Br)cc2)n[nH]c1=O | – | – | Kd [5]: 388 µM
6 | 0.53 | O=c1[nH]nc(Cc2ccc(Cl)c(Oc3cccc(Br)c3)c2)s1 | – | – | –
7 | 34 | COc1c(Br)ccc(Cc2n[nH]c(=O)n2C)c1F | – | – | Kd [5]: 4 µM
8 | – | CCc1ccc(Cc2n[nH]c(=O)n2C)c(F)c1Oc1cc(Cl)cc(C#N)c1 | 0.004 | 0.002 | –
9 | 0.15 | CN1CC(Cc2ccc(Cl)c(Oc3cccc(Br)c3)c2)=NNC1=O | – | – | –
10 | 0.69 | Cn1c(Cc2ccc(Cl)c(Oc3cccc(Br)c3)c2)n[nH]c1=O | – | – | –
11 | 18 | Cn1c(Cc2cccc(Oc3ccccc3)c2)n[nH]c1=O | – | – | Kd [5]: 3 µM
12 | 0.23 | CN(C)c1cc(Cc2ccc(Cl)c(Oc3cccc(Br)c3)c2)n[nH]c1=O | – | – | –
13 | – | Cc1cc(Cc2ccc(Cl)c(Oc3cc(Cl)cc(C#N)c3)c2F)n[nH]c1=O | 0.019 | 0.001 | EC50 [6]: 0.004 µM
14 | – | Cn1c(Cc2ccc(C3CC3)c(Oc3cc(Cl)cc(C#N)c3)c2F)n[nH]c1=O | 0.011 | 0.002 | –
15 | 5.8 | O=c1[nH]nc(Cc2ccc(Cl)c(Oc3cccc(Br)c3)c2)o1 | – | – | –
16 | 0.33 | Cc1nc(Cc2ccc(Cl)c(Oc3cccc(Br)c3)c2)n[nH]c1=O | – | – | –
17 | > 100 | Cn1c(Cc2ccccc2)n[nH]c1=O | – | – | Activity [2]: inactive
18 | 0.05 | CC1OC(Cc2ccc(Cl)c(Oc3cccc(Br)c3)c2)=NNC1=O (stereo not given) | – | – | –
19 | > 10 | Cn1c(Cc2ccc(Br)cc2F)n[nH]c1=O | – | – | Kd [5]: 102 µM

Row | Compound | IC50 [1] [µM] | EC50 [3] [µM] | EC50 [4] [µM] | other results
20 | Cn1c(Cc2ccc(Cl)c(Oc3cc(Cl)cc(C#N)c3)c2F)n[nH]c1=O | 0.011 | 0.039 | 0.008 | –
21 | CC1OC(Cc2ccc(Cl)c(Oc3cc(Cl)cc(C#N)c3)c2F)=NNC1=O (stereo not given) | 0.013 | 0.034 | 0.005 | IC50 (Cytochrome P450 3A4): 0.27 µM
22 | C[C@H]1NC(Cc2ccc(Cl)c(Oc3cc(Cl)cc(C#N)c3)c2F)=NNC1=O | 0.011 | 0.072 | 0.008 | clearance (Liver microsomes): 130 µL/min/mg
23 | Cn1c(Cc2ccc(Br)c(Oc3cc(Cl)cc(C#N)c3)c2F)n[nH]c1=O | 0.005 | 0.009 | 0.002 | bioavailability [7]: 74%; solubility [8]: 2.4 µg/mL (≈ 5.48 µM); EC50 [9]: 0.005 µM; Papp (Caco-2): 15.1 10^-6 cm/s; AUC(0-inf) [10]: 38.4 µM·h; Kd [5]: 0.004 µM; EC50 [11]: 0.001 µM; clearance [12]: 1.5 mL/min/kg; Cmax [13]: 1300 nM
